Four compounds from patent US20230398130A1, “METHODS AND COMPOSITIONS FOR DIFFERENTIATING STEM CELLS” (Massachusetts Institute of Technology, priority 2020, published 2023) can be followed below.

Assay [1] relates to ISC-enriched organoids. Description: Primary screen, 384-well 2.5-D organoid differentiation (ENR+CD, 6 days): basal lysozyme secretion (LYZ.NS). Format: cell-based, murine. The note with it: primary screen; for SSMD.LYZ.NS: strictly standardized mean difference; for Dose.FC.LYZ.NS: FC vs plate median; for Z.LYZ.NS: standard z score. The text has this: (§1) High-throughput screening.

For assay [2], the system named is ISC-enriched organoids. Put plainly: Primary screen, 384-well 2.5-D organoid differentiation (ENR+CD, 6 days): carbachol-induced lysozyme secretion (LYZ.S). It counts as cell-based, murine. To be noted: primary screen; for Z.LYZ.S: standard z score; for SSMD.LYZ.S: strictly standardized mean difference; for Dose.FC.LYZ.S: FC vs plate median.
Description: as §1

The subject of assay [3] is ISC-enriched organoids. Description: Primary screen, 384-well 2.5-D organoid differentiation (ENR+CD, 6 days, Target Selective Inhibitor Library, vs whole-plate median): ATP (CellTiter-Glo 3D, CTG). The note with it: primary screen; for Z.CTG: standard z score; for SSMD.CTG: strictly standardized mean difference; for Dose.FC.CTG: FC vs plate median.
Setting [4] is: 1st of the 4 dose lines of the treatment (dose not given).
[5] abbreviates: 2nd of the 4 dose lines of the treatment (dose not given).
The mark [6] stands for this setting: 3rd of the 4 dose lines of the treatment (dose not given).
[7] abbreviates: 4th of the 4 dose lines of the treatment (dose not given).

With `Nc1nc(OCc2cc(Br)cs2)c2[nH]cnc2n1` [Lomeguatrib], the SSMD.LYZ.NS with ISC-enriched organoids [1] (setting [4]) was −0.474; in the assay on ISC-enriched organoids [1] (setting [5]), −0.137; in the assay with ISC-enriched organoids [1] (setting [6]), −0.189; in the assay with ISC-enriched organoids [1] (setting [7]), −1.038. Moreover, the Z.LYZ.S with ISC-enriched organoids [2] (setting [4]) is −0.528; in the assay on ISC-enriched organoids [2] (setting [5]), −0.139; in the assay with ISC-enriched organoids [2] (setting [6]) it was −0.356; in the assay with ISC-enriched organoids [2] (setting [7]), −0.893. Further, the SSMD.LYZ.S is on record as −0.435 with ISC-enriched organoids [2] (setting [4]), −0.121 in the assay with ISC-enriched organoids [2] (setting [5]), −0.346 with ISC-enriched organoids [2] (setting [6]) and −0.820 in the assay on ISC-enriched organoids [2] (setting [7]). For the same compound, the Z.CTG is −1.017 in the assay with ISC-enriched organoids [3] (Dose 0.08 uM), −0.739 with ISC-enriched organoids [3] (Dose 0.40 uM), 0.178 with ISC-enriched organoids [3] (Dose 2.00 uM) and −0.192 with ISC-enriched organoids [3] (Dose 10.00 uM). Moreover, the SSMD.CTG with ISC-enriched organoids [3] (setting [4]) is −0.489; with ISC-enriched organoids [3] (setting [5]), −0.422; in the assay on ISC-enriched organoids [3] (setting [6]), 0.193; in the assay on ISC-enriched organoids [3] (setting [7]) it was −0.190.

For `CCOC(=O)N1CCC(=C2c3ccc(Cl)cc3CCc3cccnc32)CC1` [Loratadine], the SSMD.LYZ.NS is 0.098 with ISC-enriched organoids [1] (setting [4]), −0.004 in the assay on ISC-enriched organoids [1] (setting [5]), −0.783 in the assay with ISC-enriched organoids [1] (setting [6]) and −0.977 with ISC-enriched organoids [1] (setting [7]). The Z.LYZ.S in the assay on ISC-enriched organoids [2] (setting [4]) is given as −0.490; in the assay on ISC-enriched organoids [2] (setting [5]), 0.069; with ISC-enriched organoids [2] (setting [6]), −0.959; in the assay with ISC-enriched organoids [2] (setting [7]), −0.956. Besides, the SSMD.LYZ.S is recorded as −0.535 in the assay on ISC-enriched organoids [2] (setting [4]), 0.082 in the assay with ISC-enriched organoids [2] (setting [5]), −0.811 in the assay on ISC-enriched organoids [2] (setting [6]) and −1.029 in the assay on ISC-enriched organoids [2] (setting [7]). The Z.CTG in the assay on ISC-enriched organoids [3] (Dose 0.08 uM) is on record as −0.697; in the assay on ISC-enriched organoids [3] (Dose 0.40 uM), 0.347; with ISC-enriched organoids [3] (Dose 2.00 uM) it was −0.488; in the assay on ISC-enriched organoids [3] (Dose 10.00 uM), −0.287. Also, the SSMD.CTG with ISC-enriched organoids [3] (setting [4]) is −0.683; in the assay with ISC-enriched organoids [3] (setting [5]), 0.535; with ISC-enriched organoids [3] (setting [6]), −0.609; in the assay on ISC-enriched organoids [3] (setting [7]), −0.360.

As to `CCCCc1nc(Cl)c(CO)n1Cc1ccc(-c2ccccc2-c2nnn[n-]2)cc1.[K+]` [Losartan Potassium (DuP 753)], the Dose.FC.LYZ.NS in the assay with ISC-enriched organoids [1] (Dose 0.08 uM) is 0.052 log 2 fold change; in the assay on ISC-enriched organoids [1] (Dose 0.40 uM), 0.038 log 2 fold change; with ISC-enriched organoids [1] (Dose 2.00 uM) it was −0.042 log 2 fold change; in the assay on ISC-enriched organoids [1] (Dose 10.00 uM), 0.062 log 2 fold change. Further, the Z.LYZ.NS with ISC-enriched organoids [1] (Dose 0.08 uM) is recorded as 0.449; in the assay with ISC-enriched organoids [1] (Dose 0.40 uM) it was 0.329; in the assay with ISC-enriched organoids [1] (Dose 2.00 uM), −0.362; in the assay with ISC-enriched organoids [1] (Dose 10.00 uM), 0.540. Further, the SSMD.LYZ.NS was 0.273 in the assay with ISC-enriched organoids [1] (setting [4]), 0.263 in the assay on ISC-enriched organoids [1] (setting [5]), −0.341 in the assay with ISC-enriched organoids [1] (setting [6]) and 0.423 in the assay with ISC-enriched organoids [1] (setting [7]). For the same compound, the Dose.FC.LYZ.S in the assay on ISC-enriched organoids [2] (Dose 0.08 uM) is −0.017 log 2 fold change; in the assay on ISC-enriched organoids [2] (Dose 0.40 uM), 0.027 log 2 fold change; in the assay on ISC-enriched organoids [2] (Dose 2.00 uM) it was −0.080 log 2 fold change; with ISC-enriched organoids [2] (Dose 10.00 uM) it was −0.025 log 2 fold change. The Z.LYZ.S was −0.112 in the assay with ISC-enriched organoids [2] (setting [4]), 0.173 with ISC-enriched organoids [2] (setting [5]), −0.519 in the assay on ISC-enriched organoids [2] (setting [6]) and −0.164 with ISC-enriched organoids [2] (setting [7]). In addition, the SSMD.LYZ.S is recorded as −0.104 in the assay on ISC-enriched organoids [2] (setting [4]), 0.194 in the assay with ISC-enriched organoids [2] (setting [5]), −0.616 with ISC-enriched organoids [2] (setting [6]) and −0.185 in the assay with ISC-enriched organoids [2] (setting [7]). Besides, the Dose.FC.CTG with ISC-enriched organoids [3] (Dose 0.08 uM) is given as −0.152 log 2 fold change; in the assay with ISC-enriched organoids [3] (Dose 0.40 uM), −0.175 log 2 fold change; in the assay with ISC-enriched organoids [3] (Dose 2.00 uM) it was −0.081 log 2 fold change; with ISC-enriched organoids [3] (Dose 10.00 uM), −0.137 log 2 fold change. Also, the Z.CTG is recorded as −0.362 with ISC-enriched organoids [3] (Dose 0.08 uM), −0.418 with ISC-enriched organoids [3] (Dose 0.40 uM), −0.193 with ISC-enriched organoids [3] (Dose 2.00 uM) and −0.328 with ISC-enriched organoids [3] (Dose 10.00 uM). Further, the SSMD.CTG with ISC-enriched organoids [3] (setting [4]) was −0.338; in the assay on ISC-enriched organoids [3] (setting [5]), −0.304; in the assay with ISC-enriched organoids [3] (setting [6]), −0.274; in the assay on ISC-enriched organoids [3] (setting [7]) it was −0.390.

Turning to `CC[C@H](C)C(=O)O[C@H]1C[C@@H](C)C=C2C=C[C@H](C)[C@H](CC[C@@H]3C[C@@H](O)CC(=O)O3)[C@H]21` [Lovastatin], the SSMD.LYZ.NS is listed as 0.014 with ISC-enriched organoids [1] (setting [4]), −0.516 in the assay with ISC-enriched organoids [1] (setting [5]), −1.430 in the assay with ISC-enriched organoids [1] (setting [6]) and −1.590 with ISC-enriched organoids [1] (setting [7]). The Z.LYZ.S with ISC-enriched organoids [2] (setting [4]) was −0.147; with ISC-enriched organoids [2] (setting [5]) it was −0.320; with ISC-enriched organoids [2] (setting [6]), −2.572; with ISC-enriched organoids [2] (setting [7]) it was −2.645. The SSMD.LYZ.S is recorded as −0.128 in the assay with ISC-enriched organoids [2] (setting [4]), −0.236 with ISC-enriched organoids [2] (setting [5]), −1.424 with ISC-enriched organoids [2] (setting [6]) and −1.288 in the assay with ISC-enriched organoids [2] (setting [7]). For the same compound, the Z.CTG with ISC-enriched organoids [3] (Dose 0.08 uM) is −0.769; in the assay with ISC-enriched organoids [3] (Dose 0.40 uM), −1.174; with ISC-enriched organoids [3] (Dose 2.00 uM), −2.803; in the assay on ISC-enriched organoids [3] (Dose 10.00 uM), −3.322. Moreover, the SSMD.CTG is reported as −0.609 in the assay on ISC-enriched organoids [3] (setting [4]), −1.511 in the assay on ISC-enriched organoids [3] (setting [5]), −2.978 in the assay with ISC-enriched organoids [3] (setting [6]) and −1.911 in the assay with ISC-enriched organoids [3] (setting [7]).
